{"source": "ChEMBL document CHEMBL5042473", "about": "(J Med Chem, 2022)", "key": {"[1]": {"target": "Mitogen-activated protein kinase 14 (Homo sapiens, UniProt Q16539)", "sequence (Q16539 whole entry)": "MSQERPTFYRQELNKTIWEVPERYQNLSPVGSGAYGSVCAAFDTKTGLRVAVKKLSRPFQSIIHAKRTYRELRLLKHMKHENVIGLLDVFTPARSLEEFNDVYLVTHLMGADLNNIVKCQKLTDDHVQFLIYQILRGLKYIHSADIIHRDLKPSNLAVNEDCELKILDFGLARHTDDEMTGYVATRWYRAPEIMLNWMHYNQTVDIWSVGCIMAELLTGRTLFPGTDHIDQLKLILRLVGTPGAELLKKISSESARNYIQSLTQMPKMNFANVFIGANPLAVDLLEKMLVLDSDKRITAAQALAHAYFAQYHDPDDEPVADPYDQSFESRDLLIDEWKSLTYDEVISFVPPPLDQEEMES", "test": "Inhibition of human p38 MAPK alpha incubated for 1 hr by photometric method"}, "[2]": {"test": "Metabolic stability in human liver microsomes assessed as parent compound remaining incubated for 120 mins", "type": "ADME, Microsome", "details": "read-out: Stability; call rule not given here"}, "[3]": {"test": "Ratio of drug concentration in RjOrl:Swiss (CD-1) mouse brain to plasma at 10mg/kg, iv administered measured after 2 hrs by LC-MS/MS analysis", "type": "ADME, organism-based", "details": "brain and plasma, read-out: BPR"}, "[4]": {"test": "Drug uptake in mouse C57BL/6 brain at 0.4 mg/kg,po measured upto 240 mins by LC-MS/MS analysis", "type": "ADME, organism-based", "details": "in vivo, 4 h"}, "[5]": {"test": "Drug uptake in mouse C57BL/6 brain at 0.4 mg/kg,iv measured upto 240 mins by LC-MS/MS analysis", "type": "ADME, organism-based", "details": "in vivo, 4 h"}, "[6]": {"test": "Drug uptake in RjOrl:Swiss (CD-1) mouse brain at 10 mg/kg, iv administered measured after 2 hrs by LC-MS/MS analysis", "type": "ADME, organism-based", "details": "read-out: Ct"}, "[7]": {"target": "T1, CYP1A2 (Homo sapiens, UniProt P05177)", "T1 sequence (P05177 whole entry)": "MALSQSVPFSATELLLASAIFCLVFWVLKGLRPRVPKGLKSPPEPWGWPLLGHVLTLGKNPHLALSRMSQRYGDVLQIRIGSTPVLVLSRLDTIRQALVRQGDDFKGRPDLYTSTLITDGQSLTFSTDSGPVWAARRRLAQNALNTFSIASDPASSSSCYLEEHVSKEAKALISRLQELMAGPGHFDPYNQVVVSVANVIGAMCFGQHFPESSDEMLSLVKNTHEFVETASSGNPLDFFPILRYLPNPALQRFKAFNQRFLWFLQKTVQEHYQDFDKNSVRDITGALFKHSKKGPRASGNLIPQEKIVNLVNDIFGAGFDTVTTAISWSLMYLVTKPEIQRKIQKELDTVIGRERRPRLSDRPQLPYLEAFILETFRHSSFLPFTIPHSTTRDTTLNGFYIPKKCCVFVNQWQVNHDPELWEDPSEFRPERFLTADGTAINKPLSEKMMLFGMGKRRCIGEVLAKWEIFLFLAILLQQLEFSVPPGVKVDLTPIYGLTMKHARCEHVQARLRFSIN", "test": "Inhibition of human recombinant CYP1A2 at 10 uM relative to control", "type": "ADME"}, "[8]": {"target": "CYP2C9 (Homo sapiens, UniProt P11712)", "sequence (P11712 whole entry)": "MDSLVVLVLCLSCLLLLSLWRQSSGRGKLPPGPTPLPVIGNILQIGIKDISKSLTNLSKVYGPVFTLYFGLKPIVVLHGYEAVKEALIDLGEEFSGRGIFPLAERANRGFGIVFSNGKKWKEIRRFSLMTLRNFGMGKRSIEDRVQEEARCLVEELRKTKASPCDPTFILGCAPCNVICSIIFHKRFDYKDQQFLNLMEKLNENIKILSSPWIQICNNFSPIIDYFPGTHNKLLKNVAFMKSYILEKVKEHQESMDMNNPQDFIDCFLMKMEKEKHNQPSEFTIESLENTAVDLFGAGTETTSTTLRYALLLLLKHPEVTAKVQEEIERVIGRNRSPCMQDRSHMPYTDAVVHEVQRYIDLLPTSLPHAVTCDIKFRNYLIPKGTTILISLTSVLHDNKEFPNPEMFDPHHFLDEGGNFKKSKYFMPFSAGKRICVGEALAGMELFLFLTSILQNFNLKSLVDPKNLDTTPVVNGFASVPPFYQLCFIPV", "test": "Inhibition of human recombinant CYP2C9 at 10 uM relative to control", "type": "ADME"}, "[9]": {"target": "CYP2C19 (Homo sapiens, UniProt P33261)", "sequence (P33261 whole entry)": "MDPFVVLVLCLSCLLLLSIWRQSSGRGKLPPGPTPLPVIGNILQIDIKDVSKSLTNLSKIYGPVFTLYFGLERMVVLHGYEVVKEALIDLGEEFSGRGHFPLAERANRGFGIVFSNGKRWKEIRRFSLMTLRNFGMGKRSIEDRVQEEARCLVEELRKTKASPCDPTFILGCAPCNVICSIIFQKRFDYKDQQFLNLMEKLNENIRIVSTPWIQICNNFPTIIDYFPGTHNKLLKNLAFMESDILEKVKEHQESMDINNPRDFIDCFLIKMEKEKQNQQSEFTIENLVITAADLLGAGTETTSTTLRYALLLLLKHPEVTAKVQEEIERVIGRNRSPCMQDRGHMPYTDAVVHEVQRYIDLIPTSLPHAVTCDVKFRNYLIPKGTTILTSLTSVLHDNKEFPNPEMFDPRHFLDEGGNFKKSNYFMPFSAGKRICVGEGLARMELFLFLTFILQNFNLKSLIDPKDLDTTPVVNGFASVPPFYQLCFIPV", "test": "Inhibition of human recombinant CYP2C19 at 10 uM relative to control", "type": "ADME"}, "[10]": {"target": "CYP3A4 (Homo sapiens, UniProt P08684)", "sequence (P08684 whole entry)": "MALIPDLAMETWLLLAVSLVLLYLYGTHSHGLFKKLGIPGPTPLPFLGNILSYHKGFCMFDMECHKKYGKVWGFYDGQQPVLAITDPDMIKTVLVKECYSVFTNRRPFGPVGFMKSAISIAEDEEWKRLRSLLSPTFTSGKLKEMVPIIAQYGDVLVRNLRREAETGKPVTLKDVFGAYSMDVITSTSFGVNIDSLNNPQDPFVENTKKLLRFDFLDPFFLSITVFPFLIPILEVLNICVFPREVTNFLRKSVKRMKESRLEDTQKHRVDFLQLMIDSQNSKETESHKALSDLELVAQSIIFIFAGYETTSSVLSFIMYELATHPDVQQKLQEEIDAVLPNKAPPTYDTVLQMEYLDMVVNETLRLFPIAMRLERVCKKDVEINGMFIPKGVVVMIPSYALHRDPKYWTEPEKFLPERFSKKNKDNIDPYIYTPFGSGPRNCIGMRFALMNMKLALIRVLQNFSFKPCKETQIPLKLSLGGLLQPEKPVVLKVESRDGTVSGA", "test": "Inhibition of human recombinant CYP3A4 at 10 uM relative to control", "type": "ADME"}, "[11]": {"target": "hERG (Homo sapiens, UniProt Q12809)", "sequence (Q12809 whole entry)": "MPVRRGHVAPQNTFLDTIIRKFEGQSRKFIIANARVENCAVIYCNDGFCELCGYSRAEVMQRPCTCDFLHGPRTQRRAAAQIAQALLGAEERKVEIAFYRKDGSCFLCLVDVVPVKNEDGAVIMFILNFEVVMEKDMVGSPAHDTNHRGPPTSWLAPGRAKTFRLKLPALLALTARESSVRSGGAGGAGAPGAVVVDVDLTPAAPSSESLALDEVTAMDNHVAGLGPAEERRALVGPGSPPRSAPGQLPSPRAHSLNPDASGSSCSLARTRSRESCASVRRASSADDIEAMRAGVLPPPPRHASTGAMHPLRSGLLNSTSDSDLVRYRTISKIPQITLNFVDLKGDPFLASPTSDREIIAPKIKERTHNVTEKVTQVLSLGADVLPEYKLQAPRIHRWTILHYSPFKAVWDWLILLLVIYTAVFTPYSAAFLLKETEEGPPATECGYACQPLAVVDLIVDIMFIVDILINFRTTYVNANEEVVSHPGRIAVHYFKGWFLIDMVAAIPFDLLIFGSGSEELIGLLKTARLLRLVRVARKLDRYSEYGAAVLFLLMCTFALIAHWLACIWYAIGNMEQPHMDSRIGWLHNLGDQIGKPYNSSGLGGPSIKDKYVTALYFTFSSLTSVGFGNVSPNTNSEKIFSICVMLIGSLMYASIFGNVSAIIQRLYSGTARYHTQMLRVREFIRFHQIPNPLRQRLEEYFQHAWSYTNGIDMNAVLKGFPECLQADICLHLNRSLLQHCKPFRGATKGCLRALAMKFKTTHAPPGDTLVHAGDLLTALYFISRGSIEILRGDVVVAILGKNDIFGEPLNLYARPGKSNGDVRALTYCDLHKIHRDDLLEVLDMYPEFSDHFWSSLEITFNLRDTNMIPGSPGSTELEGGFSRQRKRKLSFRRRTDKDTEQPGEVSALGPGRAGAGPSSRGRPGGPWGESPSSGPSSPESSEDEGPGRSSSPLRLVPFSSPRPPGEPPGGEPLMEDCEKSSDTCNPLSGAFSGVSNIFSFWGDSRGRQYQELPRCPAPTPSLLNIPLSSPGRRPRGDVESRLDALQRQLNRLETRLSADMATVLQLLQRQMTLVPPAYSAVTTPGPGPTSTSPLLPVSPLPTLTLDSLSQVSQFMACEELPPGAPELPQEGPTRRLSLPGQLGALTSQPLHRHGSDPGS", "test": "Inhibition of hERG at 10 uM by fluorimetric analysis relative to control", "type": "toxicity"}, "[12]": {"target": "CYP2D6 (Homo sapiens, UniProt P10635)", "sequence (P10635 whole entry)": "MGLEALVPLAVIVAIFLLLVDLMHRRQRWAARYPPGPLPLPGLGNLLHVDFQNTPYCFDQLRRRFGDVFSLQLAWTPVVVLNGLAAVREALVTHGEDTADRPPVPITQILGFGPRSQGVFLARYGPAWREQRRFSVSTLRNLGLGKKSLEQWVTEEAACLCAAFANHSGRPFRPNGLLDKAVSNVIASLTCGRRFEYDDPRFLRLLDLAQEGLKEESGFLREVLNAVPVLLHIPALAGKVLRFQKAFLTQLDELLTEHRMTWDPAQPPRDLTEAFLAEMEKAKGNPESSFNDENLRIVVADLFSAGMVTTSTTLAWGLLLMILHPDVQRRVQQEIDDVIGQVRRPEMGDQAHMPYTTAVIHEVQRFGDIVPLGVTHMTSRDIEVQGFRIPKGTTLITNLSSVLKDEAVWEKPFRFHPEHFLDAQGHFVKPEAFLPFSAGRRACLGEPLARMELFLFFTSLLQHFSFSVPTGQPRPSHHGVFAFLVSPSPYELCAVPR", "test": "Inhibition of human recombinant CYP2D6 at 10 uM relative to control", "type": "ADME"}, "[13]": {"tested_on": "Blood", "test": "Antiinflammatory activity against LPS-stimulated C57BL/6 mouse whole blood assessed as reduction in TNF-alpha at 1 nM incubated for 24 hrs by ELISA based method", "type": "functional", "design": "scale not given: the % may be the effect or the level left"}, "[14]": {"test": "Cytotoxicity against Balb/c mouse splenocytes assessed as metabolic activity at 100 nM incubated for 24 hrs by MTT assay relative to LPS-stimulated splenocytes", "type": "toxicity, cell-based, Splenocyte", "details": "read-out: Activity"}, "[15]": {"tested_on": "Splenocyte", "test": "Cytotoxicity against Balb/c mouse splenocytes assessed as metabolic activity at 1 to 10 nM incubated for 24 hrs by MTT assay", "type": "toxicity, cell-based", "details": "0.01 µM, dose 1-10 nM"}}, "data": [{"smiles": "Nc1ccccc1Nc1ccc2c(c1)CCc1ccc(C(=O)NCCN3CCNCC3)cc1C2=O", "values": [{"measurement": "IC50", "setting": "[1]", "result": 18, "unit": "nM"}]}, {"smiles": "NC(=O)CCNC(=O)c1ccc2c(c1)C(=O)c1ccc(Nc3ccc(F)cc3F)cc1CC2", "values": [{"measurement": "IC50", "setting": "[1]", "result": 6.2, "unit": "nM"}, {"measurement": "remaining at 2 h", "setting": "[2]", "result": 95, "unit": "%"}]}, {"smiles": "N[C@@H](CCCCNC(=O)c1ccc2c(c1)C(=O)c1ccc(Nc3ccc(F)cc3F)cc1CC2)C(=O)O", "values": [{"measurement": "IC50", "setting": "[1]", "result": 3.5, "unit": "nM"}, {"measurement": "Kp at 2 h", "setting": "[3]", "result": 0.01}]}, {"smiles": "CSCC[C@H](NC(=O)c1ccc2c(c1)C(=O)c1ccc(Nc3ccc(F)cc3F)cc1CC2)C(=O)O", "values": [{"measurement": "Drug uptake", "setting": "[4]", "result": "Not Active"}, {"measurement": "Drug uptake", "setting": "[5]", "result": "Not Active"}, {"measurement": "IC50", "setting": "[1]", "result": 11, "unit": "nM"}]}, {"smiles": "O=C(O)CNC(=O)c1ccc2c(c1)C(=O)c1ccc(Nc3ccc(F)cc3F)cc1CC2", "values": [{"measurement": "IC50", "setting": "[1]", "result": 9.3, "unit": "nM"}, {"measurement": "concentration at 2 h", "setting": "[6]", "result": 8.2, "unit": "ng/g"}, {"measurement": "Kp at 2 h", "setting": "[3]", "result": 0.13}, {"measurement": "remaining at 2 h", "setting": "[2]", "result": 93, "unit": "%"}]}, {"smiles": "NCCNC(=O)c1ccc2c(c1)C(=O)c1ccc(Nc3ccccc3N)cc1CC2", "values": [{"measurement": "IC50", "setting": "[1]", "result": 5.3, "unit": "nM"}]}, {"smiles": "CC(NC(=O)c1ccc2c(c1)C(=O)c1ccc(Nc3ccc(F)cc3F)cc1CC2)C1CCCCC1", "note": "(stereo not drawn)", "values": [{"measurement": "IC50", "setting": "[1]", "result": 22, "unit": "nM"}]}, {"smiles": "O=C(N[C@@H](Cc1ccccc1)C(=O)O)c1ccc2c(c1)C(=O)c1ccc(Nc3ccc(F)cc3F)cc1CC2", "values": [{"measurement": "IC50", "setting": "[1]", "result": 36, "unit": "nM"}, {"measurement": "concentration at 2 h", "setting": "[6]", "result": 15, "unit": "ng/g"}, {"measurement": "Kp at 2 h", "setting": "[3]", "result": 0.31}]}, {"smiles": "O=C(NCCc1c[nH]cn1)c1ccc2c(c1)C(=O)c1ccc(Nc3ccc(F)cc3F)cc1CC2", "values": [{"measurement": "IC50", "setting": "[1]", "result": 5.6, "unit": "nM"}, {"measurement": "remaining at 2 h", "setting": "[2]", "result": 95, "unit": "%"}]}, {"smiles": "Nc1ccccc1Nc1ccc2c(c1)CCc1ccc(C(=O)NCCCC[C@H](N)C(=O)O)cc1C2=O", "values": [{"measurement": "IC50", "setting": "[1]", "result": 17, "unit": "nM"}]}, {"smiles": "Nc1ccccc1Nc1ccc2c(c1)CCc1ccc(C(=O)NCCc3cnc[nH]3)cc1C2=O", "values": [{"measurement": "IC50", "setting": "[1]", "result": 26, "unit": "nM"}]}, {"smiles": "CN(C)C(=O)c1ccc2c(c1)C(=O)c1ccc(Nc3ccc(F)cc3F)cc1CC2", "values": [{"measurement": "IC50", "setting": "[1]", "result": 95, "unit": "nM"}]}, {"smiles": "O=C(NCCNCCO)c1ccc2c(c1)C(=O)c1ccc(Nc3ccc(F)cc3F)cc1CC2", "values": [{"measurement": "IC50", "setting": "[1]", "result": 1.7, "unit": "nM"}, {"measurement": "Kp at 2 h", "setting": "[3]", "result": 0.17}]}, {"smiles": "O=C(NC1(c2ccccc2)CC1)c1ccc2c(c1)C(=O)c1ccc(Nc3ccc(F)cc3F)cc1CC2", "values": [{"measurement": "IC50", "setting": "[1]", "result": 2.5, "unit": "nM"}, {"measurement": "concentration at 2 h", "setting": "[6]", "result": 49, "unit": "ng/g"}, {"measurement": "Kp at 2 h", "setting": "[3]", "result": 0.51}]}, {"smiles": "O=C(NCCN1CC2(COC2)C1)c1ccc2c(c1)C(=O)c1ccc(Nc3ccc(F)cc3F)cc1CC2", "values": [{"measurement": "inhibition at 10 µM", "setting": "[7]", "result": 0, "unit": "%"}, {"measurement": "IC50", "setting": "[1]", "result": 5.9, "unit": "nM"}, {"measurement": "inhibition at 10 µM", "setting": "[8]", "result": 88.7, "unit": "%"}, {"measurement": "concentration at 2 h", "setting": "[6]", "result": 68, "unit": "ng/g"}, {"measurement": "inhibition at 10 µM", "setting": "[9]", "result": 93.6, "unit": "%"}, {"measurement": "Kp at 2 h", "setting": "[3]", "result": 0.16}, {"measurement": "inhibition at 10 µM", "setting": "[10]", "result": 83.6, "unit": "%"}, {"measurement": "remaining at 2 h", "setting": "[2]", "result": 47, "unit": "%"}, {"measurement": "inhibition at 10 µM", "setting": "[11]", "result": 76.6, "unit": "%"}, {"measurement": "inhibition at 10 µM", "setting": "[12]", "result": 18.3, "unit": "%"}]}, {"smiles": "O=C(NO)c1ccc2c(c1)C(=O)c1ccc(Nc3ccc(F)cc3F)cc1CC2", "values": [{"measurement": "IC50", "setting": "[1]", "result": 5.2, "unit": "nM"}, {"measurement": "remaining at 2 h", "setting": "[2]", "result": 13, "unit": "%"}]}, {"smiles": "O=C(NCCc1cccs1)c1ccc2c(c1)C(=O)c1ccc(Nc3ccc(F)cc3F)cc1CC2", "values": [{"measurement": "IC50", "setting": "[1]", "result": 6.4, "unit": "nM"}]}, {"smiles": "COC(=O)CC[C@H](NC(=O)c1ccc2c(c1)C(=O)c1ccc(Nc3ccccc3N)cc1CC2)C(=O)OC", "values": [{"measurement": "IC50", "setting": "[1]", "result": 17, "unit": "nM"}]}, {"smiles": "COC(=O)[C@@H](N)CNC(=O)c1ccc2c(c1)C(=O)c1ccc(Nc3ccc(F)cc3F)cc1CC2", "values": [{"measurement": "IC50", "setting": "[1]", "result": 5.4, "unit": "nM"}, {"measurement": "remaining at 2 h", "setting": "[2]", "result": 12, "unit": "%"}]}, {"smiles": "Nc1ccccc1Nc1ccc2c(c1)CCc1ccc(C(=O)N[C@@H](CCC(=O)O)C(=O)O)cc1C2=O", "values": [{"measurement": "IC50", "setting": "[1]", "result": 27, "unit": "nM"}]}, {"smiles": "O=C(NC(CO)(CO)CO)c1ccc2c(c1)C(=O)c1ccc(Nc3ccc(F)cc3F)cc1CC2", "values": [{"measurement": "Drug uptake", "setting": "[4]", "result": "Not Active"}, {"measurement": "Drug uptake", "setting": "[5]", "result": "Not Active"}, {"measurement": "Activity", "setting": "[13]", "result": 5, "unit": "%"}, {"measurement": "IC50", "setting": "[1]", "result": 3, "unit": "nM"}, {"measurement": "viability at 24 h, 0.1 µM", "setting": "[14]", "result": 66, "unit": "%"}, {"measurement": "Activity", "setting": "[15]", "result": "Non-Toxic"}]}, {"smiles": "Nc1ccccc1Nc1ccc2c(c1)CCc1ccc(C(=O)NCC(O)CO)cc1C2=O", "note": "(stereo not drawn)", "values": [{"measurement": "IC50", "setting": "[1]", "result": 15, "unit": "nM"}]}, {"smiles": "COC(=O)[C@@H](N)CCCCNC(=O)c1ccc2c(c1)C(=O)c1ccc(Nc3ccccc3N)cc1CC2", "values": [{"measurement": "IC50", "setting": "[1]", "result": 12, "unit": "nM"}]}, {"smiles": "O=C(NCCN1CCNCC1)c1ccc2c(c1)C(=O)c1ccc(Nc3ccc(F)cc3F)cc1CC2", "values": [{"measurement": "IC50", "setting": "[1]", "result": 1.3, "unit": "nM"}, {"measurement": "Kp at 2 h", "setting": "[3]", "result": 0.24}, {"measurement": "remaining at 2 h", "setting": "[2]", "result": 93, "unit": "%"}]}, {"smiles": "O=C(NCCc1ccccc1)c1ccc2c(c1)C(=O)c1ccc(Nc3ccc(F)cc3F)cc1CC2", "values": [{"measurement": "IC50", "setting": "[1]", "result": 21, "unit": "nM"}]}, {"smiles": "N[C@@H](CNC(=O)c1ccc2c(c1)C(=O)c1ccc(Nc3ccc(F)cc3F)cc1CC2)C(=O)O", "values": [{"measurement": "Kp at 2 h", "setting": "[3]", "result": 0.003}]}, {"smiles": "COC(=O)[C@H](Cc1ccccc1)NC(=O)c1ccc2c(c1)C(=O)c1ccc(Nc3ccc(F)cc3F)cc1CC2", "values": [{"measurement": "IC50", "setting": "[1]", "result": 15, "unit": "nM"}]}]}
